How the values were obtained:
[1] = target: T1, Interleukin IL-2 (Mus musculus, UniProt P01590+P16297+P34902); test: Radioligand binding panel (Table S1); conditions: 10 μM T1-11, n 2
T1 construct: purchased MDS Pharma Services Taiwan

[2] = target: T2, Orexin OX 1 (Homo sapiens, UniProt O43613); test: Radioligand binding panel (Table S1); conditions: 10 μM T1-11, n 2
T2 construct: purchased MDS Pharma Services Taiwan

[3] = target: T3, A2A adenosine receptor (Homo sapiens, UniProt P29274); test: Radioligand binding assay
T3 construct: host or cells: HEK293

[4] = target: T4, Cholecystokinin CCK. (CCK8) (Homo sapiens, UniProt P32239); test: Radioligand binding panel (Table S1); conditions: 10 μM T1-11, n 2
T4 construct: purchased MDS Pharma Services Taiwan

[5] = tested on: Imidazoline I2, Peripheral; test: Radioligand binding panel (Table S1); parameters: species or system rat; conditions: 10 μM T1-11, n 2
[6] = target: T5, Chemokine CX3CR1 (Homo sapiens, UniProt P49238); test: Radioligand binding panel (Table S1); conditions: 10 μM T1-11, n 2
T5 construct: purchased MDS Pharma Services Taiwan

[7] = tested on: Phosphodiesterase PDE4; test: Radioligand binding panel (Table S1); parameters: species or system human; conditions: 10 μM T1-11, n 2
[8] = target: T6, Opiate μ (OP3, MOP) (Homo sapiens, UniProt P35372); test: Radioligand binding panel (Table S1); conditions: 10 μM T1-11, n 2
T6 construct: purchased MDS Pharma Services Taiwan

[9] = target: T7, Serotonin (5-Hydroxytryptamine) 5-HT1A (Homo sapiens, UniProt P08908); test: Radioligand binding panel (Table S1); conditions: 10 μM T1-11, n 2
T7 construct: purchased MDS Pharma Services Taiwan

[10] = tested on: Progesterone; test: Radioligand binding panel (Table S1); parameters: species or system bovine; conditions: 10 μM T1-11, n 2
[11] = target: T8, Adrenergic α 2A (Homo sapiens, UniProt P08913); test: Radioligand binding panel (Table S1); conditions: 10 μM T1-11, n 2
T8 construct: purchased MDS Pharma Services Taiwan

[12] = target: T9, A2AR (Rattus norvegicus, UniProt P30543); test: cAMP assay in PC12 cells; assay type: cell-based
T9 construct: Treatment of PC12 cells with T1-11 dose-dependently elevated the cellular cAMP levels; endogenous in cells; host or cells: PC12
Description: PC12 cells were plated at the density of 5×10^5 cells/well (on 12-well plates) and incubated with the indicated reagent(s) for the desired period of time. Cells were washed twice with ice-cold Locke's solution (150 mM NaCl, 5.6 mM KCl, 5 mM glucose, 1 mM MgCl2, and 10 mM HEPES, adjusted to pH 7.4). Cellular cAMP was extracted by adding 0.3 ml of 0.1 M HCl to each well and incubating this for 10 min on ice.

[13] = tested on: Potassium Channel [SKCA]; test: Radioligand binding panel (Table S1); parameters: species or system rat; conditions: 10 μM T1-11, n 2
[14] = target: T10, Serotonin (5-Hydroxytryptamine) 5-HT2A (Homo sapiens, UniProt P28223); test: Radioligand binding panel (Table S1); conditions: 10 μM T1-11, n 2
T10 construct: purchased MDS Pharma Services Taiwan
Description: (§1) Radoligand binding assays were performed by MDS Pharma Services Taiwan (Taipei, Taiwan) using standard binding protocols. For the binding assay of the A2AR [67], membrane proteins collected from HEK293 cells overexpressing the human A2AR were incubated in reaction buffer [50 mM Tris-HCl (pH 7.4), 10 mM MgCl2, 1 mM EDTA, and 2 U/mL adenosine deaminase] containing ^3H-CGS21680 (50 nM) for 90 min at 25°C. Nonspecific binding was assessed in the presence of 50 µM adenosine- 5′-N-ethylcarboxamide. […] Nonspecific binding was assessed in the presence of 1 µM IB-MECA (Tocris Bioscience, Ellisville, MS, USA).

[15] = tested on: GABAA, Chloride Channel, TBPS; test: Radioligand binding panel (Table S1); parameters: species or system rat; conditions: 10 μM T1-11, n 2
[16] = target: T11, Aldosterone (Rattus norvegicus, UniProt P22199); test: Radioligand binding panel (Table S1); conditions: 10 μM T1-11, n 2
T11 construct: purchased MDS Pharma Services Taiwan

[17] = target: T12, Melatonin MT1 (Homo sapiens, UniProt P48039); test: Radioligand binding panel (Table S1); conditions: 10 μM T1-11, n 2
T12 construct: purchased MDS Pharma Services Taiwan

[18] = target: T13, Dopamine D4.2 (Homo sapiens, UniProt P21917, DEL265-296); test: Radioligand binding panel (Table S1); conditions: 10 μM T1-11, n 2
T13 construct: purchased MDS Pharma Services Taiwan

[19] = tested on: Adrenergic β, Non-Selective; test: Radioligand binding panel (Table S1); parameters: species or system rat; conditions: 10 μM T1-11, n 2
[20] = target: T14, Phosphodiesterase PDE3 (Homo sapiens, UniProt Q14432); test: Radioligand binding panel (Table S1); conditions: 10 μM T1-11, n 2
T14 construct: purchased MDS Pharma Services Taiwan

[21] = target: T15, Bradykinin B2 (Homo sapiens, UniProt P30411); test: Radioligand binding panel (Table S1); conditions: 10 μM T1-11, n 2
T15 construct: purchased MDS Pharma Services Taiwan

[22] = target: T16, Motilin (Homo sapiens, UniProt O43193); test: Radioligand binding panel (Table S1); conditions: 10 μM T1-11, n 2
T16 construct: purchased MDS Pharma Services Taiwan

[23] = target: T17, hERG potassium channel (Homo sapiens, UniProt Q12809); test: Radioligand binding panel (Table S1); conditions: 10 μM T1-11, n 2
T17 construct: purchased MDS Pharma Services Taiwan

[24] = tested on: GABAA, Chloride Channel, TBOB; test: Radioligand binding panel (Table S1); parameters: species or system rat; conditions: 10 μM T1-11, n 2
[25] = target: T18, Benzodiazepine, Peripheral (Rattus norvegicus, UniProt P16257); test: Radioligand binding panel (Table S1); conditions: 10 μM T1-11, n 2
T18 construct: purchased MDS Pharma Services Taiwan

[26] = target: T19, Potassium Channel [KATP] (Cricetus cricetus, UniProt Q09427); test: Radioligand binding panel (Table S1); parameters: species or system hamster; conditions: 10 μM T1-11, n 2
T19 construct: purchased MDS Pharma Services Taiwan
Description: as §1

[27] = tested on: R6/2 mice; test: Survival of R6/2 mice; assay type: in vivo; conditions: 0.05 mg/ml in drinking water, n = 11
Source text: Male R6/2 mice and littermate controls were originally obtained from Jackson Laboratories (Bar Harbor, ME, USA), and mated to female control mice (B6CBAFI/J). Offspring were identified by a polymerase chain reaction (PCR) genotyping technique of genomic DNA extracted from tail tissues using primers located in the transgene (5′-[…]-3′ and 5′-[…]- AGGAG-3′) to ensure that the number of CAG repeats remained approximately 150. In total, 211 R6/2 transgenic mice were used in this study. Animals were housed at the Institute of Biomedical Sciences Animal Care Facility under a 12-h light/dark cycle. Body weights of mice were recorded once daily. Animal experiments were performed under protocols approved by the Academia Sinica Institutional Animal Care and Utilization Committee, Taipei, Taiwan.
Supplementary file pone.0020934.s005.tif: Figure S5 Effect of T1-11 on the shorten lifespan and enlarged ventricle of R6/2 mice. Animals were given the vehicle (1% DMSO; CON) or T1-11 (0.05 mg/ml)-containing drinking water from the age of 7 weeks. (A) Survival was assessed. Specific comparison to R6/2 mice treated with the vehicle (p = 0.306; Mantel-Cox test). (B) Five weeks after T1-11 treatment, 3D-lMRI was performed to determine the ventricle-to-brain ratio of the indicated animals as described. * p<0.05. (TIF) Click here for additional data file.

[28] = HEK293 membranes, 3H-CGS21680 50 nM

T3 sequence (P29274 whole entry): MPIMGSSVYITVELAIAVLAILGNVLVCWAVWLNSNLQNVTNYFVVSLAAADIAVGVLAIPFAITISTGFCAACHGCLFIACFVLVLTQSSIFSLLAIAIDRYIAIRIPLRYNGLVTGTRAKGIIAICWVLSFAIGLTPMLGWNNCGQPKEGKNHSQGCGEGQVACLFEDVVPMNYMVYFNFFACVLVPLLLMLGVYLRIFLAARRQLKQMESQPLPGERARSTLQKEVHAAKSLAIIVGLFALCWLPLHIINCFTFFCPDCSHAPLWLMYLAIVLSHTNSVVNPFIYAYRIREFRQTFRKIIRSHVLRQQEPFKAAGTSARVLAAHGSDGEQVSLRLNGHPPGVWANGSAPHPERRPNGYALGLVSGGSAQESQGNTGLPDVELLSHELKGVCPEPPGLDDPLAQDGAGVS
T9 sequence (P30543 whole entry): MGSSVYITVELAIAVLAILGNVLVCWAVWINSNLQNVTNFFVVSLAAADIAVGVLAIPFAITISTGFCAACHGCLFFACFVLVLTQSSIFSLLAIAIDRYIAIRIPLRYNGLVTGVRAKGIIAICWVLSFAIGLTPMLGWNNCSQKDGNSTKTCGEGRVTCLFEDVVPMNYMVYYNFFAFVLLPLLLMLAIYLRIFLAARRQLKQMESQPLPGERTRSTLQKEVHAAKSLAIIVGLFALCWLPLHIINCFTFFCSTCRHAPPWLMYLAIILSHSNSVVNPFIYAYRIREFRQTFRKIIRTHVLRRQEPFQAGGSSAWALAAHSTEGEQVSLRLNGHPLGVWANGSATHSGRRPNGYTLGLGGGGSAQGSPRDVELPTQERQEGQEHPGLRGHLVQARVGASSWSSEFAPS
T4 sequence (P32239 whole entry): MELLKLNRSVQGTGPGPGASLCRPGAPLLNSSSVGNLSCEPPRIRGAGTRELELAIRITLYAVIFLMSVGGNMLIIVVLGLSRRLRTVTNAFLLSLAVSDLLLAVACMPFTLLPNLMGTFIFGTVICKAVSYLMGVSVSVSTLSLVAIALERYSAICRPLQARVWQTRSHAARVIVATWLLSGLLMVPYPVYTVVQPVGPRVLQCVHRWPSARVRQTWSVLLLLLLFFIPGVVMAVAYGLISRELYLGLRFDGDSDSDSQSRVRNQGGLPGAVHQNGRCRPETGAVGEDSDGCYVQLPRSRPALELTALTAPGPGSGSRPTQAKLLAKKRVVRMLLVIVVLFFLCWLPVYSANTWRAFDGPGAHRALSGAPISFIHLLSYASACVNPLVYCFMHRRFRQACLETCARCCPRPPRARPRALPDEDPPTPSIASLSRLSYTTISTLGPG
T7 sequence (P08908 whole entry): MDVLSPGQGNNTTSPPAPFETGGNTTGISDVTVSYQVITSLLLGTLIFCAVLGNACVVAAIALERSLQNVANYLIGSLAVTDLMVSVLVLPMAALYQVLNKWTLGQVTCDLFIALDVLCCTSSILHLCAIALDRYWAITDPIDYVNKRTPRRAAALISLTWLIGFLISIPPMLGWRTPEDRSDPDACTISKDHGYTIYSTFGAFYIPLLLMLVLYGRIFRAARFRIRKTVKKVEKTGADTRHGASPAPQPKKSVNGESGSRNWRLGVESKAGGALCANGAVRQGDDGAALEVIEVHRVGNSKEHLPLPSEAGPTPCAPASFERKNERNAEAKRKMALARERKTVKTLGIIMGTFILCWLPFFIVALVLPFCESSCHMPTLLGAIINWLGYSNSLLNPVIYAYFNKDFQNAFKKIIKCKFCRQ
T6 sequence (P35372 whole entry): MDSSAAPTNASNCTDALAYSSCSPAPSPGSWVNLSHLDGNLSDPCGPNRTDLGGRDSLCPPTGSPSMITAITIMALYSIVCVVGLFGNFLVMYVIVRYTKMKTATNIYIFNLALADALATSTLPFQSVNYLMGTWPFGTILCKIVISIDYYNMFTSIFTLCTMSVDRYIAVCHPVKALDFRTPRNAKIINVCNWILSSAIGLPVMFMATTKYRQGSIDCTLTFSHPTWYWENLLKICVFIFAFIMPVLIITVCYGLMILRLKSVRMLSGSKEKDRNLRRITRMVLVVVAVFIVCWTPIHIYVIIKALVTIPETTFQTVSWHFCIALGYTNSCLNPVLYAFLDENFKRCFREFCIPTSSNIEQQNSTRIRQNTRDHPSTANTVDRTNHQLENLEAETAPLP
T12 sequence (P48039 whole entry): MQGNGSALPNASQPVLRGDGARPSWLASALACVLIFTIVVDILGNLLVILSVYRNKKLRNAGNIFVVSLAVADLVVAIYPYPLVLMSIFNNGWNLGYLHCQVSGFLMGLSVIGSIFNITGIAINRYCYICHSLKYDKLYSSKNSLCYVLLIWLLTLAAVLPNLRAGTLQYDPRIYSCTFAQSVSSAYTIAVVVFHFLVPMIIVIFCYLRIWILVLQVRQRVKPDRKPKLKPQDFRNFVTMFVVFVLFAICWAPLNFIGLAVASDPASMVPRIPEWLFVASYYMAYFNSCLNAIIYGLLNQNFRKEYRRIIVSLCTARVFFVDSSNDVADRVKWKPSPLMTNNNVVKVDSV
T16 sequence (O43193 whole entry): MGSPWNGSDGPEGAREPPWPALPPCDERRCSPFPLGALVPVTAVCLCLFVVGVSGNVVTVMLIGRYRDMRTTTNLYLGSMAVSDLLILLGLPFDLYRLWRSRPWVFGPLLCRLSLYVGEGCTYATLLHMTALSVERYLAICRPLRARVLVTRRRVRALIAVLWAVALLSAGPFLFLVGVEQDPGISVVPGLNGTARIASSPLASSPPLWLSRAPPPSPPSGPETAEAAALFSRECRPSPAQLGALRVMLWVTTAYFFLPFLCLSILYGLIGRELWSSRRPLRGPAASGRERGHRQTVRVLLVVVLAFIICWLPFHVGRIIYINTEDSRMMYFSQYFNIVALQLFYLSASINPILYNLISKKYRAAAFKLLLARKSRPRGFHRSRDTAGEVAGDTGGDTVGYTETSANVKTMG
T13 sequence (P21917 with tags, fused parts or gaps DEL265-296): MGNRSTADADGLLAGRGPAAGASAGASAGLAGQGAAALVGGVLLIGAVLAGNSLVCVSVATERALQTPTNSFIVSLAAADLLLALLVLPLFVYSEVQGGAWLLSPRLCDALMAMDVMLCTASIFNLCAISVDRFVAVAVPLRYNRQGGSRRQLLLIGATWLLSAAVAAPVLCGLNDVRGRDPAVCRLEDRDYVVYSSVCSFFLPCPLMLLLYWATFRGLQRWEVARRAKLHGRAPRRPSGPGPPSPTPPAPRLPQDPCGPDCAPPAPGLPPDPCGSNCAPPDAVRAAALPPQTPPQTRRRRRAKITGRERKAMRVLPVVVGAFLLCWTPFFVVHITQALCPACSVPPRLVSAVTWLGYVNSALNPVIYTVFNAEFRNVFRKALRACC
T8 sequence (P08913 whole entry): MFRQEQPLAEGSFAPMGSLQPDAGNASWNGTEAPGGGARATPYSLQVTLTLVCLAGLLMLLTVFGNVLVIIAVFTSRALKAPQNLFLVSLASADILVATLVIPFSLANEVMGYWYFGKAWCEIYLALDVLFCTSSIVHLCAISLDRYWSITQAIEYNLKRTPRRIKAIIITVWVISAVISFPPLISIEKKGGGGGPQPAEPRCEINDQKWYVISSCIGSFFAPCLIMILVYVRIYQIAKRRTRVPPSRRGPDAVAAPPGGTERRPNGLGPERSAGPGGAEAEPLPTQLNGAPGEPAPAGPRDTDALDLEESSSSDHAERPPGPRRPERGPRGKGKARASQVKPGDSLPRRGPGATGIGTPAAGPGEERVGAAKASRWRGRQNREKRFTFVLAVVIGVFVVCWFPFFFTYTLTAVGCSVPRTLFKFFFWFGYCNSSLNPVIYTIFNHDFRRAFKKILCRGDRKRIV
T1 sequence (P01590 22-268): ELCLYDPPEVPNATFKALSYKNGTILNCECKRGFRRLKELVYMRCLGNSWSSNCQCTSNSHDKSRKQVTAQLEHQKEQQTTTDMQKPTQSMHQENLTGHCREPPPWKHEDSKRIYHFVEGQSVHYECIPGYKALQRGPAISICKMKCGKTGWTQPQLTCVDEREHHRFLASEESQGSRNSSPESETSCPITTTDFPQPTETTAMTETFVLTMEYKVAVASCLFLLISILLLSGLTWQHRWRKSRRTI
T1 sequence (P16297 27-539): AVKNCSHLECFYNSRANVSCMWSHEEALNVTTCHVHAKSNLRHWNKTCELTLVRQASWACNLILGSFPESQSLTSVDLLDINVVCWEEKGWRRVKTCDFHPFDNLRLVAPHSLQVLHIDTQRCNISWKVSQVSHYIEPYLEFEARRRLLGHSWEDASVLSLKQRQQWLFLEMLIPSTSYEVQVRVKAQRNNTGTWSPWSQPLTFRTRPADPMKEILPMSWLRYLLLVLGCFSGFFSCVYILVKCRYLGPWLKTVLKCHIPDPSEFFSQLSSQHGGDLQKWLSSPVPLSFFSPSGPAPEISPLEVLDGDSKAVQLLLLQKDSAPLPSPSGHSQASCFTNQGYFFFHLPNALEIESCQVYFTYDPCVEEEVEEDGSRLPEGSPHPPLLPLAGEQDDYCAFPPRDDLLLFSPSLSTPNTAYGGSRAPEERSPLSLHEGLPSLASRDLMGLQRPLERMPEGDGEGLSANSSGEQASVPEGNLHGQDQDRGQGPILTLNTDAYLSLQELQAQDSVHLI
T1 sequence (P34902 23-369): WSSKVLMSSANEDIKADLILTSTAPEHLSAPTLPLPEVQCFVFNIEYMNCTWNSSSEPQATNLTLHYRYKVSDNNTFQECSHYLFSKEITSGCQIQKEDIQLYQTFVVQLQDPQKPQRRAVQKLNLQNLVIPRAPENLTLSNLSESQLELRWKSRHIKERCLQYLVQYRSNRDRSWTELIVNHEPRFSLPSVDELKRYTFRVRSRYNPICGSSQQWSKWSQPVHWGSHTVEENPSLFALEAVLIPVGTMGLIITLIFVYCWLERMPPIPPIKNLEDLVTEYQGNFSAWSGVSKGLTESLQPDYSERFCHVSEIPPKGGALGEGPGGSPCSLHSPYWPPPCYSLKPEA

In the case of `OC[C@H]1O[C@@H](n2cnc3c(NCc4ccc(O)cc4)ncnc32)[C@H](O)[C@@H]1O` [T1-11, N ^6-(4-hydroxybenzyl)adenine riboside], the inhibition at 10 µM [1] is reported as 0%, the inhibition at 10 µM [2] is reported as -13% and the inhibition at 10 µM ([3]; 10 μM T1-11, n 2) is reported as 58%. The IC50 [3, 28] was 4.66 µM, the Ki [3, 28] was 2.62 µM and the inhibition at 10 µM [4] was -5%. The “% Inhibition” value [5] was 10%, the inhibition at 10 µM [6] was -1% and the “% Inhibition” value [7] was 0%. The inhibition at 10 µM [8] was 5%, the inhibition at 10 µM [9] was 9% and the “% Inhibition” value [10] was 9%. The inhibition at 10 µM [11] was -8%, the Function ([12]; A2A adenosine receptor, elevates cellular cAMP levels) was “agonist” and the EC50 ([12]; PC12 cells, 20 min at RT, read-out: EC50, elevation of cellular cAMP levels) was about 2.2 µM. The “% Inhibition” value [13] was 1%, the inhibition at 10 µM [14] was 19% and the “% Inhibition” value [15] was 6%. The inhibition at 10 µM [16] was 2%, the inhibition at 10 µM [17] was -4% and the inhibition at 10 µM [18] was 3%. For the same molecule, the “% Inhibition” value [19] was 10%, the inhibition at 10 µM [20] was 0% and the inhibition at 10 µM [21] was -9%. For the same molecule, the inhibition at 10 µM [22] was -2%, the inhibition at 10 µM [23] was -2% and the “% Inhibition” value [24] was -3%. For the same molecule, the inhibition at 10 µM [25] was 3%, the inhibition at 10 µM [26] was 6% and the Mean survival time [27] was 103.3 ± 3.9 days.

— article PMC3119665, “A New Drug Design Targeting the Adenosinergic System for Huntington's Disease” (PLoS ONE, 2011)
